In patent US20090111847A1, “PREPARATION METHOD AND USE OF COMPOUNDS HAVING HIGH INSECTICIDAL ACTIVITIES” (priority 2006, published 2009):

Experiments:
Aphis craccivora = experiment: Insecticidal activity against Aphis craccivora by immersing (mortality after 24 hours); format: in vivo; details: for Mortality (%) (500 ppm) Aphis craccivora / Aphis craccivora LC50 (ppm) / Aphis craccivora Mortality (%) (100 ppm): in vivo
Description: Aphis, which belongs to Homoptera and has a piercing-sucking mouthpart, is a common insect for agricultural plant. Aphis craccivora was tested by the way of immersing.
Test method: exactly weighed various samples were independently added to N,N-dimethylformamide to form a 10 g/L stock solution. The mixture was diluted with 0.2 mL/L aqueous Triton X-100 solution to a concentration of 500 ug/mL. After stably sucking on bean sprout, the adult aphis without wings together with bean sprout was dipped into the dilution of 500 ug/mL, 100 ug/mL, 50 ug/mL, 25 ug/mL, 12.5 ug/mL, 6.25 ug/mL (LD50 was calculated), taken out after 5 seconds, and the excess dilution was sucked out with bibulous paper and the adult aphis without wings was incubated in clean vessel at a constant temperature of 23° C. Each concentration was repeated for 3 times and the control group contained 0.2 mL/L aqueous Triton X-100 solution. The number of killed aphis was counted after 24 hours to calculate the mortality.

Nilaparvata lugens = experiment: Insecticidal activity against Nilaparvata lugens by spraying (mortality after 24 hours); format: in vivo; details: for Mortality (%) (500 ppm) Nilaparvata lugens: spraying 2 ml, counted after 24 hours
Description: Plant hopper, which belongs to Homoptera and has a piercing-sucking mouthpart, is a common insect for agricultural plant. Nilaparvata lugens was tested by the way of spraying.
Test method: the compound to be tested was exactly formulated into a solution having a certain concentration and clean water was used as a blank control. Each process was repeated for 3 tumblers (3 times). 2 ml of solution was sprayed uniformly to each tumbler by a mini manual sprayer. 10 Nilaparvata lugens were introduced to every sink 6 hours before spraying. Three series of experiments were conducted. The number of killed Nilaparvata lugens was counted after 24 hours to calculate the mortality.

Compound	Aphis craccivora LC50 (ppm) (Aphis craccivora)	Aphis craccivora Mortality (%) (100 ppm) (Aphis craccivora)	also measured
CCCC1CC(OCC)N2CCN(Cc3ccc(Cl)nc3)C2=C1[N+](=O)[O-] (stereo not shown) [Compound 25]			Mortality (%) (500 ppm) Aphis craccivora (Aphis craccivora): 96%; Mortality (%) (500 ppm) Nilaparvata lugens (Nilaparvata lugens): 100%
CCC1CC([N+](=O)[O-])=C2N(Cc3ccc(Cl)nc3)CCN2C1O (stereo not shown) [Compound 26]			Mortality (%) (500 ppm) Aphis craccivora (Aphis craccivora): 100%; Mortality (%) (500 ppm) Nilaparvata lugens (Nilaparvata lugens): 100%
CCC1CC([N+](=O)[O-])=C2N(Cc3ccc(Cl)nc3)CCN2C1OC (stereo not shown) [Compound 27]			Mortality (%) (500 ppm) Aphis craccivora (Aphis craccivora): 92%; Mortality (%) (500 ppm) Nilaparvata lugens (Nilaparvata lugens): 80%
CCCC1CC([N+](=O)[O-])=C2N(Cc3ccc(Cl)nc3)CCN2C1O (stereo not shown) [Compound 28]			Mortality (%) (500 ppm) Aphis craccivora (Aphis craccivora): 100%; Mortality (%) (500 ppm) Nilaparvata lugens (Nilaparvata lugens): 96%
CCCC1CC([N+](=O)[O-])=C2N(Cc3ccc(Cl)nc3)CCN2C1OCC (stereo not shown) [Compound 29]			Mortality (%) (500 ppm) Aphis craccivora (Aphis craccivora): 100%; Mortality (%) (500 ppm) Nilaparvata lugens (Nilaparvata lugens): 97%
CC1C([N+](=O)[O-])=C2N(Cc3ccc(Cl)nc3)CCN2C(O)C1C (stereo not shown) [Compound 30, 1-((6-chloropyridin-3-yl)methyl)-6,7-dimethyl-8-nitro-1,2,3,5,6,7-hexahydroimidazo[1,2-a]pyridin-5-ol]			mortality at 500 ppm (Aphis craccivora; Aphis craccivora, 24 h, read-out: Mortality (%) (500 ppm) Aphis craccivora): 100%; mortality at 500 ppm (Nilaparvata lugens; Nilaparvata lugens, 24 h, read-out: Mortality (%) (500 ppm) Nilaparvata lugens): 100%
CC1(C)CC(O)N2CCN(Cc3ccc(Cl)nc3)C2=C1[N+](=O)[O-] (stereo not shown) [Compound 31]			Mortality (%) (500 ppm) Aphis craccivora (Aphis craccivora): 96%; Mortality (%) (500 ppm) Nilaparvata lugens (Nilaparvata lugens): 100%
CC1CC(O)N2CCN(Cc3ccc(Cl)nc3)C2=C1[N+](=O)[O-] (stereo not shown) [a]	31.5	95.3	
COC1CC(C)C([N+](=O)[O-])=C2N(Cc3ccc(Cl)nc3)CCN21 (stereo not shown) [b]	50.8	84	
CCOC1CC(C)C([N+](=O)[O-])=C2N(Cc3ccc(Cl)nc3)CCN21 (stereo not shown) [c]	65.4	67	
CCCOC1CC(C)C([N+](=O)[O-])=C2N(Cc3ccc(Cl)nc3)CCN21 (stereo not shown) [d]	33.6	75.4	
CC(C)OC1CC(C)C([N+](=O)[O-])=C2N(Cc3ccc(Cl)nc3)CCN21 (stereo not shown) [e]	20.5	100	
CC1CC(O)N2CCN(Cc3cnc(Cl)s3)C2=C1[N+](=O)[O-] (stereo not shown) [f]	68	87	
CC1CC([N+](=O)[O-])=C2N(Cc3ccc(Cl)nc3)CCN2C1O (stereo not shown) [g]	36.3	92	
CCCC1CC(O)N2CCN(Cc3ccc(Cl)nc3)C2=C1[N+](=O)[O-] (stereo not shown) [i]	75.2	77	
CCC1CC([N+](=O)[O-])=C2N(Cc3ccc(Cl)nc3)CCN2C1O (stereo not shown) [j]	57.3	93.6	
CCC1CC([N+](=O)[O-])=C2N(Cc3ccc(Cl)nc3)CCN2C1OC (stereo not shown) [k]	83.0	92	
CC1C([N+](=O)[O-])=C2N(Cc3ccc(Cl)nc3)CCN2C(O)C1C (stereo not shown) [l]	86.4	66.7	
CCC1C([N+](=O)[O-])=C2N(Cc3ccc(Cl)nc3)CCN2C(O)C1C (stereo not shown) [m]	75.9	87	
COC1CC(O)N2CCN(Cc3ccc(Cl)nc3)C2=C1[N+](=O)[O-] (stereo not shown) [n]	40.5	96	
CCOC1CC(O)N2CCN(Cc3ccc(Cl)nc3)C2=C1[N+](=O)[O-] (stereo not shown) [o]	66.4	82	
COC1CC([N+](=O)[O-])=C2N(Cc3ccc(Cl)nc3)CCN2C1O (stereo not shown) [p]	47.6	93	
CCOC1CC([N+](=O)[O-])=C2N(Cc3ccc(Cl)nc3)CCN2C1O (stereo not shown) [q]	70.9	85	
